{"source": "paper PMC6037002", "about": "“Drug targeting to decrease cardiotoxicity – determination of the cytotoxic effect of GnRH-based conjugates containing doxorubicin, daunorubicin and methotrexate on human cardiomyocytes and endothelial cells” (Beilstein Journal of Organic Chemistry, 2018)", "key": {"[1]": {"tested_on": "primary human cardiac myocytes (HCM)", "conditions": "HCM, three parallels; for delta slope (DS), short-term: 0–2 h; for delta slope (DS), long-term: 0–72 h"}, "[2]": {"tested_on": "human umbilical vein endothelial cells (HUVEC)", "experiment": "Impedimetric measurement (xCELLigence SP), delta slope, HUVEC", "conditions": "HUVEC, three parallels; for delta slope (DS), short-term: 0–2 h; for delta slope (DS), long-term: 0–72 h"}, "[3]": {"tested_on": "HT-29 human colon adenocarcinoma cells", "conditions": "MTT assay; cited from earlier work", "text": "(§1) Table 1 Comparative study of cytotoxic effects and cardiotoxicity elicited by GnRH-based antitumor compounds (1–15) and reference substances (AN-152, Dox, Dau, Mtx). IC50 values show antitumor cytotoxic characteristics of the conjugates in human breast cancer (MCF-7), human colorectal adenocarcinoma (HT-29) and human acute monocytic leukemia (MM6) derived cell lines as representative tumor cells."}, "[4]": {"tested_on": "MCF-7 human breast adenocarcinoma cells", "conditions": "MTT assay; cited from earlier work", "text": "as §1"}, "[5]": {"tested_on": "human acute monocytic leukemia (MonoMac6) cells", "conditions": "cited from earlier work", "text": "as §1"}}, "note": "Like-named read-outs stand apart in the source and are kept apart here."}
{"smiles": "COc1cccc2c1C(=O)c1c(O)c3c(c(O)c1C2=O)C[C@@](O)(C(C)=O)C[C@@H]3O[C@H]1C[C@H](N)[C@H](O)[C@H](C)O1", "note": "[daunorubicin]", "values": [{"measurement": "delta slope (DS), short-term", "setting": "[1]; Table S1b, 10^-6 mol/L", "result": 0.031}, {"measurement": "delta slope (DS), short-term", "setting": "[1]; Table S1b, 10^-7 mol/L", "result": -0.001}, {"measurement": "delta slope (DS), short-term", "setting": "[1]; Table S1b, 10^-8 mol/L", "result": 0.001}, {"measurement": "delta slope (DS), short-term", "setting": "[1]; Table S1b, 10^-9 mol/L", "result": -0.001}, {"measurement": "delta slope (DS), short-term", "setting": "[1]; Table S1b, 10^-10 mol/L", "result": -0.001}, {"measurement": "delta slope (DS), short-term", "setting": "[1]; Table S1b, 10^-11 mol/L", "result": -0.001}, {"measurement": "delta slope (DS), short-term", "setting": "[1]; Table S1b, 10^-12 mol/L", "result": -0.001}, {"measurement": "delta slope (DS), long-term", "setting": "[1]; Table S1b, 10^-6 mol/L", "result": "−0.019"}, {"measurement": "delta slope (DS), long-term", "setting": "[1]; Table S1b, 10^-6 mol/L, listed as Daunorubicin", "result": -0.019}, {"measurement": "delta slope (DS), long-term", "setting": "[1]; Table S1b, 10^-7 mol/L", "result": "−0.007"}, {"measurement": "delta slope (DS), long-term", "setting": "[1]; Table S1b, 10^-7 mol/L, listed as Daunorubicin", "result": -0.007}, {"measurement": "delta slope (DS), long-term", "setting": "[1]; Table S1b, 10^-8 mol/L", "result": -0.001}, {"measurement": "delta slope (DS), long-term", "setting": "[1]; Table S1b, 10^-9 mol/L", "result": -0.001}, {"measurement": "delta slope (DS), long-term", "setting": "[1]; Table S1b, 10^-10 mol/L", "result": -0.001}, {"measurement": "delta slope (DS), long-term", "setting": "[1]; Table S1b, 10^-11 mol/L", "result": -0.001}, {"measurement": "delta slope (DS), long-term", "setting": "[1]; Table S1b, 10^-12 mol/L", "result": -0.001}, {"measurement": "delta slope (DS), short-term", "setting": "[1]; Table S3b, 10^-6 mol/L", "result": 0.028}, {"measurement": "delta slope (DS), short-term", "setting": "[1]; Table S3b, 10^-8 mol/L", "result": -0.001}, {"measurement": "delta slope (DS), long-term", "setting": "[1]; Table S3b, 10^-6 mol/L", "result": -0.021}, {"measurement": "delta slope (DS), long-term", "setting": "[1]; Table S3b, 10^-7 mol/L", "result": -0.006}, {"measurement": "delta slope (DS), long-term", "setting": "[1]; Table S3b, 10^-8 mol/L", "result": -0.001}, {"measurement": "delta slope (DS), short-term", "setting": "[1]; Table S4b, 10^-6 mol/L", "result": 0.030}, {"measurement": "delta slope (DS), short-term", "setting": "[1]; Table S4b, 10^-7 mol/L", "result": -0.009}, {"measurement": "delta slope (DS), short-term", "setting": "[1]; Table S4b, 10^-8 mol/L", "result": -0.001}, {"measurement": "delta slope (DS), long-term", "setting": "[1]; Table S4b, 10^-6 mol/L", "result": -0.024}, {"measurement": "delta slope (DS), long-term", "setting": "[1]; Table S4b, 10^-7 mol/L", "result": -0.009}, {"measurement": "delta slope (DS), long-term", "setting": "[1]; Table S4b, 10^-8 mol/L", "result": -0.001}, {"measurement": "delta slope (DS), short-term", "setting": "[1]; Table S5b, 10^-8 mol/L", "result": -0.001}, {"measurement": "delta slope (DS), long-term", "setting": "[1]; Table S5b, 10^-8 mol/L", "result": -0.001}, {"measurement": "delta slope (DS), short-term", "setting": "[2]; Table S1a, 10^-6 mol/L", "result": 0.047}, {"measurement": "delta slope (DS), short-term", "setting": "[2]; Table S1a, 10^-7 mol/L", "result": 0.055}, {"measurement": "delta slope (DS), short-term", "setting": "[2]; Table S1a, 10^-8 mol/L", "result": 0.018}, {"measurement": "delta slope (DS), short-term", "setting": "[2]; Table S1a, 10^-9 mol/L", "result": -0.008}, {"measurement": "delta slope (DS), short-term", "setting": "[2]; Table S1a, 10^-10 mol/L", "result": -0.008}, {"measurement": "delta slope (DS), short-term", "setting": "[2]; Table S1a, 10^-11 mol/L", "result": 0.008}, {"measurement": "delta slope (DS), short-term", "setting": "[2]; Table S1a, 10^-12 mol/L", "result": -0.005}, {"measurement": "delta slope (DS), long-term", "setting": "[2]; Table S1a, 10^-6 mol/L", "result": "−0.019"}, {"measurement": "delta slope (DS), long-term", "setting": "[2]; Table S1a, 10^-6 mol/L, listed as Daunorubicin", "result": -0.019}, {"measurement": "delta slope (DS), long-term", "setting": "[2]; Table S1a, 10^-7 mol/L", "result": "−0.007"}, {"measurement": "delta slope (DS), long-term", "setting": "[2]; Table S1a, 10^-7 mol/L, listed as Daunorubicin", "result": -0.007}, {"measurement": "delta slope (DS), long-term", "setting": "[2]; Table S1a, 10^-8 mol/L", "result": -0.001}, {"measurement": "delta slope (DS), long-term", "setting": "[2]; Table S1a, 10^-9 mol/L", "result": -0.00113}, {"measurement": "delta slope (DS), long-term", "setting": "[2]; Table S1a, 10^-10 mol/L", "result": 0.001}, {"measurement": "delta slope (DS), long-term", "setting": "[2]; Table S1a, 10^-11 mol/L", "result": 0.002}, {"measurement": "delta slope (DS), long-term", "setting": "[2]; Table S1a, 10^-12 mol/L", "result": -0.001}, {"measurement": "delta slope (DS), short-term", "setting": "[2]; Table S3a, 10^-6 mol/L", "result": 0.003}, {"measurement": "delta slope (DS), short-term", "setting": "[2]; Table S3a, 10^-7 mol/L", "result": -0.002}, {"measurement": "delta slope (DS), short-term", "setting": "[2]; Table S3a, 10^-8 mol/L", "result": -0.008}, {"measurement": "delta slope (DS), long-term", "setting": "[2]; Table S3a, 10^-6 mol/L", "result": -0.010}, {"measurement": "delta slope (DS), long-term", "setting": "[2]; Table S3a, 10^-7 mol/L", "result": 0.001}, {"measurement": "delta slope (DS), short-term", "setting": "[2]; Table S4a, 10^-6 mol/L", "result": 0.009}, {"measurement": "delta slope (DS), short-term", "setting": "[2]; Table S4a, 10^-7 mol/L", "result": 0.016}, {"measurement": "delta slope (DS), short-term", "setting": "[2]; Table S4a, 10^-8 mol/L", "result": 0.005}, {"measurement": "delta slope (DS), long-term", "setting": "[2]; Table S4a, 10^-6 mol/L", "result": -0.058}, {"measurement": "delta slope (DS), long-term", "setting": "[2]; Table S4a, 10^-7 mol/L", "result": 0.004}, {"measurement": "delta slope (DS), long-term", "setting": "[2]; Table S4a, 10^-8 mol/L", "result": 0.006}, {"measurement": "IC50", "setting": "[3]", "result": "300 ± 200", "unit": "nM"}, {"measurement": "IC50", "setting": "[4]", "result": "400 ± 100", "unit": "nM"}, {"measurement": "IC50", "setting": "[5]", "result": "0.08 ± 0.1", "unit": "nM"}]}
